Measured values from PMC4503722, “Novel Phenotypic Outcomes Identified for a Public Collection of Approved Drugs from a Publicly Accessible Panel of Assays” (PLoS ONE, 2015).

What was measured:
[1] = tested on: endothelial tube formation in co-cultures of ECFCs and ADSCs treated with VEGF; experiment: cells; assay type: cell-based, human
[2] = tested on: HeLa cells; experiment: cells; assay type: cell-based; conditions: for Hela CellCycMod PI 2N IC50/EC50: assay number 14; for Hela CellCycMod PI 4N IC50/EC50: assay number 16; for Hela CellCycMod PI MI IC50/EC50: assay number 17; for Hela CellCycMod PI Cell Number IC50/EC50: assay number 18
[3] = tested on: ECFC/ADSC co-culture cell nuclei number
[4] = biological target: T1, hFLT3 (Homo sapiens, UniProt P36888); experiment: Cerep LANCE kinase assay hFLT3 (S1 assay 35); assay type: biochemical; conditions: for hFLT3 LANCE IC50/EC50: assay number 35
T1 construct: purchased Cerep (LANCE kinase assay platform, contract assay)
T1 sequence (P36888 27-993): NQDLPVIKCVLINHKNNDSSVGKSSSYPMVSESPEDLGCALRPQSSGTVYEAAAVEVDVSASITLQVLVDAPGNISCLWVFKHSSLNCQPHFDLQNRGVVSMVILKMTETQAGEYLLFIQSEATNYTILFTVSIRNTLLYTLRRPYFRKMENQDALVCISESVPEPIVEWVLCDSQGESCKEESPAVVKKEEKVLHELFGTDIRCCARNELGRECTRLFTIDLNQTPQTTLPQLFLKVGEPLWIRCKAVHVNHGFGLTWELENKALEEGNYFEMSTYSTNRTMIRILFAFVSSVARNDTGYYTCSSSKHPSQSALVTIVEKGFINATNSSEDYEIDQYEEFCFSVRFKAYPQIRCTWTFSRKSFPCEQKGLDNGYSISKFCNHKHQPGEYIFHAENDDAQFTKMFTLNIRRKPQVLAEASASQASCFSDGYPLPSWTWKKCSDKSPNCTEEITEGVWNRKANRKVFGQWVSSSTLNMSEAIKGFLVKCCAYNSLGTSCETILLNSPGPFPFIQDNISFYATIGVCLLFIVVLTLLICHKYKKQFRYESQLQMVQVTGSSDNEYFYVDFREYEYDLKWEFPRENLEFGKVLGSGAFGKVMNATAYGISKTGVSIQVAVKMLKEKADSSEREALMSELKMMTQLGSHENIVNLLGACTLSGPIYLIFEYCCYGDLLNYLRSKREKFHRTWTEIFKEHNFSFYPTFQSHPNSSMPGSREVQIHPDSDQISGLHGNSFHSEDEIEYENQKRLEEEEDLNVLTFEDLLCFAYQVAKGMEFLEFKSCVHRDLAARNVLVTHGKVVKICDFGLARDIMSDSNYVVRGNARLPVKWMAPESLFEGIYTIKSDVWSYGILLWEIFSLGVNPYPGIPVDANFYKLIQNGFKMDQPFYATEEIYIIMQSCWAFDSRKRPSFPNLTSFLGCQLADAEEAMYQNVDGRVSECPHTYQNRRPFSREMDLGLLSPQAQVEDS

[5] = biological target: T2, hJAK2 (Homo sapiens, UniProt O60674); experiment: Cerep LANCE kinase assay hJAK2 (S1 assay 33); assay type: biochemical; conditions: for hJAK2 LANCE IC50/EC50: assay number 33
T2 construct: purchased Cerep (LANCE kinase assay platform, contract assay)
T2 sequence (O60674 whole entry): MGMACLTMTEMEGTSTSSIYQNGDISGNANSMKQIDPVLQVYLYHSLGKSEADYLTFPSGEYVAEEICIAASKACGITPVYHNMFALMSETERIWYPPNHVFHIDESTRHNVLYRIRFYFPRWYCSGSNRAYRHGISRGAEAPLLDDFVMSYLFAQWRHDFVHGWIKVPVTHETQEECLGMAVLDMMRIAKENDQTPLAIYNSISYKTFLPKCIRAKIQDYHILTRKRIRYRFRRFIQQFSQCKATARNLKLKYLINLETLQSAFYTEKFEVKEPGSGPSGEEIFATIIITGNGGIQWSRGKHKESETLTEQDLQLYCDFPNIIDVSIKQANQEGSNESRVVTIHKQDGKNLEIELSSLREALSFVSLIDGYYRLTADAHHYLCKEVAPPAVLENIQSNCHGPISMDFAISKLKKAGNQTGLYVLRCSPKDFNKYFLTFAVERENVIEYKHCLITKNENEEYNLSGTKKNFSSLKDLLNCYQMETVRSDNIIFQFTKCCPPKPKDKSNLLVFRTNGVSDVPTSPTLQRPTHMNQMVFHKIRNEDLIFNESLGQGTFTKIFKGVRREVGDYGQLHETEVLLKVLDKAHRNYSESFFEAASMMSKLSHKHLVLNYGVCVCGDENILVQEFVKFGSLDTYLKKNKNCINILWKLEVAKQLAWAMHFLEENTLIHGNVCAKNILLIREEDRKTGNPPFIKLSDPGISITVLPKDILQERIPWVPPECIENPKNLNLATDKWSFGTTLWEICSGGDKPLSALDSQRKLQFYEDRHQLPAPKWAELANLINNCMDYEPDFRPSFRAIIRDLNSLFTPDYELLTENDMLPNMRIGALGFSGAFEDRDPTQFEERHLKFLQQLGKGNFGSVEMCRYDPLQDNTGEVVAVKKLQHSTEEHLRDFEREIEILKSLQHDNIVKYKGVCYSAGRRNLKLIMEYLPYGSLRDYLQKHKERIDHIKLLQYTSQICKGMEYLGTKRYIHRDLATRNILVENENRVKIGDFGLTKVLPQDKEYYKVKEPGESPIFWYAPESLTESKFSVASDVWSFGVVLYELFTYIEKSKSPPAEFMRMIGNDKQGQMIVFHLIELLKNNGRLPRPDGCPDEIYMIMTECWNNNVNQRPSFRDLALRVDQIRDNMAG

[6] = tested on: nuclear β-catenin in C2C12 cells; experiment: cells; assay type: cell-based; conditions: concentration response; for WntCondMedia_bCatenin C2C12 IC50/EC50: assay number 5
[7] = biological target: T3, hGSK3b (Homo sapiens, UniProt P49841); experiment: Cerep LANCE kinase assay hGSK3b (S1 assay 34); assay type: biochemical; conditions: for hGSK3b LANCE IC50/EC50: assay number 34
T3 construct: purchased Cerep (LANCE kinase assay platform, contract assay)
T3 sequence (P49841 whole entry): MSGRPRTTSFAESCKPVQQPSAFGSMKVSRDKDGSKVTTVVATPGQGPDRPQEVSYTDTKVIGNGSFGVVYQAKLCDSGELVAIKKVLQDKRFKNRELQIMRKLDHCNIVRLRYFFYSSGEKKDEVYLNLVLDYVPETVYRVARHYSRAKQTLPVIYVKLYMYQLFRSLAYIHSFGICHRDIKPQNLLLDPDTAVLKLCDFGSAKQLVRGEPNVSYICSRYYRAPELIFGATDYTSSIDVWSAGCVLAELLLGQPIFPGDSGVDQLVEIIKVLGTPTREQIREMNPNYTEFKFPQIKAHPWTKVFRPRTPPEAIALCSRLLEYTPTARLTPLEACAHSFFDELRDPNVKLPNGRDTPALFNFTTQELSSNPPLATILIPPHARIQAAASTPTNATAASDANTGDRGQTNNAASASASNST

[8] = biological target: T4, hKDR (Homo sapiens, UniProt P35968); experiment: Cerep LANCE kinase assay hKDR (S1 assay 32); assay type: biochemical; conditions: for hKDR LANCE IC50/EC50: assay number 32
T4 construct: purchased Cerep (LANCE kinase assay platform, contract assay)
T4 sequence (P35968 20-1356): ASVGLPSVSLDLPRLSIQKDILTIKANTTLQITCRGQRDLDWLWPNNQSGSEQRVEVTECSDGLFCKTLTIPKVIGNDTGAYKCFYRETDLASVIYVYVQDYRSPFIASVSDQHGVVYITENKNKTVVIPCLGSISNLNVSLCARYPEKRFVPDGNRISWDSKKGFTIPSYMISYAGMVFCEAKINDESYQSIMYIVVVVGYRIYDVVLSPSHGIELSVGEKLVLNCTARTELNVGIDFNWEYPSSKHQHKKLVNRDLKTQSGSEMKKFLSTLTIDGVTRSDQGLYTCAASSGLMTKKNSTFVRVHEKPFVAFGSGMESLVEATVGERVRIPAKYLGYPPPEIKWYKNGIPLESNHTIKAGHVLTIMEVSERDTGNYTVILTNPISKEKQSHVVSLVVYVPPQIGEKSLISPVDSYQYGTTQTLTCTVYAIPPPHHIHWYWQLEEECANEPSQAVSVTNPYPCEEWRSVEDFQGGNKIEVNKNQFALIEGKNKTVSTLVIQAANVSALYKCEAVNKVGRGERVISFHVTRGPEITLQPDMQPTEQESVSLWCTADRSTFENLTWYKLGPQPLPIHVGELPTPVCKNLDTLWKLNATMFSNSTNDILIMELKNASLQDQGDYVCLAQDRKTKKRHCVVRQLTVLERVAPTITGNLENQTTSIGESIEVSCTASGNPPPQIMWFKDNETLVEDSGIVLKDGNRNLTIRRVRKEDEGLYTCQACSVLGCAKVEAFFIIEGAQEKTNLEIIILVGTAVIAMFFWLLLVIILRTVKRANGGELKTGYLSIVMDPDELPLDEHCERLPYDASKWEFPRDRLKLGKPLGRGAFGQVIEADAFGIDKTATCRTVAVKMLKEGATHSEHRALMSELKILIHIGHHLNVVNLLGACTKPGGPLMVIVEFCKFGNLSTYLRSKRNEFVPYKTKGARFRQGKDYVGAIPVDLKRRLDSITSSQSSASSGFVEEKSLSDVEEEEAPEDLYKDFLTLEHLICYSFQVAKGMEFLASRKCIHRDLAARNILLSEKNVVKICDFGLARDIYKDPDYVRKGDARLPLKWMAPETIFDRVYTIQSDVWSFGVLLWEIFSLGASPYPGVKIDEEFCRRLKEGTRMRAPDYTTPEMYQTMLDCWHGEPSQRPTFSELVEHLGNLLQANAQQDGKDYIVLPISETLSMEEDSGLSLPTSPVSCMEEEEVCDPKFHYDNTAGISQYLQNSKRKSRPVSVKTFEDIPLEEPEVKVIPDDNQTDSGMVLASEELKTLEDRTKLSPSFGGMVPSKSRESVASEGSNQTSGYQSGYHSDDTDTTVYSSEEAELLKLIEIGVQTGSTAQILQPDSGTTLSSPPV

[9] = biological target: T5, hp70S6K1 (RPS6KB1) (Homo sapiens, UniProt P23443); experiment: Cerep LANCE kinase assay hp70S6K1 (S1 assay 31); assay type: biochemical; conditions: for hp70S6K1 LANCE IC50/EC50: assay number 31
T5 construct: purchased Cerep (LANCE kinase assay platform, contract assay)
T5 sequence (P23443 whole entry): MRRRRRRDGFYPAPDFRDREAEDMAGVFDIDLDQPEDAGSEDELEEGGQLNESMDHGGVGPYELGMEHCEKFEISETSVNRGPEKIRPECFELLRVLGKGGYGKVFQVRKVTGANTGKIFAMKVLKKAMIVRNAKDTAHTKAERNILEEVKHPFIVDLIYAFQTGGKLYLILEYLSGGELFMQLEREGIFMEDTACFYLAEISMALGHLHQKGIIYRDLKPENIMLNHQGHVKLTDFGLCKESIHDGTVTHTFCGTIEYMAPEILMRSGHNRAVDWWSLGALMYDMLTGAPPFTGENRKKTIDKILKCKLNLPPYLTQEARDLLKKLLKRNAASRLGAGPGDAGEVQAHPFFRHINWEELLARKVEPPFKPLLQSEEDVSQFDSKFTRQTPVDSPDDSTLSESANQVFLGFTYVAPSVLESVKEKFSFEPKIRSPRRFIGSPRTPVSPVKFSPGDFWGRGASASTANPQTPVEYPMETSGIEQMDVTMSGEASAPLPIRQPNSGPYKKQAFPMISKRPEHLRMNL

[10] = tested on: alkaline phosphatase (ALP) activity in C2C12 cells; assay type: cell-based; conditions: concentration response; for WntCondMedia_Alk Phos C2C12 IC50/EC50: assay number 6

Row | SMILES | IC50/EC50, VEGF_ADSC\ECFC Angio CD31 TubeArea (assay number 2) [1] | IC50/EC50, Hela CellCycMod PI 2N (assay number 14) [2] | IC50/EC50, Hela CellCycMod PI 4N (assay number 16) [2] | IC50/EC50, Hela CellCycMod PI MI (assay number 17) [2] | IC50/EC50, Hela CellCycMod PI S Phase (assay number 15) [2] | IC50/EC50, VEGF_ADSC\ECFC Angio Hoechst NucArea (assay number 3) [3] | IC50/EC50, hFLT3 LANCE (assay number 35) [4] | IC50/EC50, hJAK2 LANCE (assay number 33) [5] | IC50/EC50, WntCondMedia_bCatenin C2C12 (assay number 5) [6] | IC50/EC50, hGSK3b LANCE (assay number 34) [7] | IC50/EC50, hKDR LANCE (assay number 32) [8] | IC50/EC50, hp70S6K1 LANCE (assay number 31) [9] | IC50/EC50, WntCondMedia_Alk Phos C2C12 (assay number 6) [10] | IC50/EC50, Hela CellCycMod PI Cell Number (assay number 18) [2] | VEGF_ADSC\ECFC Angio CD31 TubeArea IC50/EC50 [1] | Hela CellCycMod PI 2N IC50/EC50 [2] | Hela CellCycMod PI 4N IC50/EC50 [2] | Hela CellCycMod PI MI IC50/EC50 [2] | Hela CellCycMod PI Cell Number IC50/EC50 [2] | VEGF_ADSC\ECFC Angio Hoechst NucArea IC50/EC50 [3] | other results
1 | COC(=O)Nc1nc2ccc(C(=O)c3cccs3)cc2[nH]1 [NCGC00015647-18] | 0.1018 µM | 0.0174 µM | 0.01755 µM | 0.01339 µM | > 10 µM | > 10 µM | > 20 µM | > 20 µM | 0.2351 µM | 19.89 µM | 6.61 µM | > 20 µM | 0.0434 µM | – | – | – | – | – | – | – | –
2 | CCN(CC)CCNc1ccc(CO)c2sc3ccccc3c(=O)c12 [NCGC00016622-08] | 8.3546 µM | 5.6786 µM | > 10 µM | > 10 µM | > 10 µM | > 10 µM | > 20 µM | > 20 µM | > 20 µM | > 20 µM | > 20 µM | 17.07 µM | 2.6738 µM | 5.9199 µM | – | – | – | – | – | – | –
3 | COC(=O)Nc1nc2ccc(C(=O)c3ccccc3)cc2[nH]1 [NCGC00016806-13] | 0.3699 µM | 0.0761 µM | 0.08 µM | 0.0648 µM | – | > 10 µM | > 20 µM | > 20 µM | 1.7387 µM | > 20 µM | 1.43 µM | > 20 µM | 0.2454 µM | 0.0542 µM | – | – | – | – | – | – | –
4 | C=C(C)[C@H]1Cc2c(ccc3c2O[C@@H]2COc4cc(OC)c(OC)cc4[C@@H]2C3=O)O1 [NCGC00017358-15] | – | – | – | – | – | – | – | – | – | – | – | – | – | – | 0.0257 µM | 0.3111 µM | 0.3108 µM | 0.2229 µM | 0.1532 µM | > 10 µM | Hela CellCycMod PI S Phase IC50/EC50 ([2]; assay number 15, S phase): > 10 µM; hFLT3 LANCE IC50/EC50 [4]: > 20 µM; hJAK2 LANCE IC50/EC50 [5]: > 20 µM; WntCondMedia_bCatenin C2C12 IC50/EC50 [6]: 2.9875 µM; hGSK3b LANCE IC50/EC50 [7]: > 20 µM; hKDR LANCE IC50/EC50 [8]: > 20 µM; hp70S6K1 LANCE IC50/EC50 [9]: > 20 µM; WntCondMedia_Alk Phos C2C12 IC50/EC50 [10]: 0.2539 µM
5 | CCCOc1ccc2nc(NC(=O)OC)[nH]c2c1 [NCGC00018238-09] | – | – | – | – | – | – | – | – | – | – | – | – | – | – | 0.3276 µM | 0.0622 µM | 0.0567 µM | 0.0775 µM | 0.0467 µM | > 10 µM | hFLT3 LANCE IC50/EC50 [4]: > 20 µM; hJAK2 LANCE IC50/EC50 [5]: > 20 µM; WntCondMedia_bCatenin C2C12 IC50/EC50 [6]: 0.3653 µM; hGSK3b LANCE IC50/EC50 [7]: > 20 µM; hKDR LANCE IC50/EC50 [8]: > 20 µM; hp70S6K1 LANCE IC50/EC50 [9]: > 20 µM; WntCondMedia_Alk Phos C2C12 IC50/EC50 [10]: 0.0881 µM
